This note sets out measurements from US8119645B2, “Fungicide hydroximoyl-tetrazole derivatives” (Bayer Cropscience AG, priority 2006, dated 2012).

A word on the chromatographic logP: it is lipophilicity estimated from chromatographic retention. What is called LogP is a log measure of how a compound divides between an organic and an aqueous phase. Read a low LogP as lower lipophilicity.

One data set is described as follows: logP by reversed-phase HPLC (EEC Directive 79/831 Annex V.A8). The format is physicochemical.
Conditions: not given
`CCCCCC(=O)Nc1cccc(CO/N=C(\c2csc(-c3ccccc3)n2)c2nnnn2C)n1` [Compound 178, O-(2-Pentylcarbonylaminopyridin-6-yl)methyl-(2-phenyl-1,3-thiazol-4-yl)-(1-methyitetrazol-5-yl)methanone oxime] registered a chromatographic logP of 4.06. On to `Cc1nnnn1/C(=N/OCc1csc(NC(=O)C(C)(C)C)n1)c1ccsc1` [Compound 18, O-(2-tert-Butylcarbonylamino-1,3-thiazol-4-yl)methyl-(thien-3-yl)-(5-methyltetrazol-1-yl)methanone oxime], for which the chromatographic logP stood at 2.94.

The same data set, now with this note: HPLC C18, 40° C., 0.1% aqueous formic acid / acetonitrile gradient.
The compound `Cc1ccc(C(=NOCc2csc(NC(=O)c3ccccc3)n2)n2nnnc2C)o1` [Compound 63] gave a LogP of 2.96.

`Cc1nnnn1C(=NOCCc1csc(NC(=O)C(C)(C)C)n1)c1ccsc1` [Compound 51] returned a LogP of 3.19. `CCCC(=O)Nc1nc(CON=C(c2ccc(-c3ccccc3)s2)n2nnnc2C)cs1` [Compound 56]: the LogP was 3.87.

Regarding `Cn1nnnc1C(=NOCc1csc(NC(=O)C(C)(C)C)n1)c1csc(-c2ccccc2)n1` [Compound 170], the LogP is 3.62.

`Cc1nnnn1C(=NOCc1csc(NC(=O)CCCc2ccccc2)n1)c1ccc(Br)s1` [Compound 88] yielded a LogP of 4.04. In turn, `Cc1nnnn1C(=NOCc1csc(NC(=S)NCCc2ccccc2)n1)c1ccsc1` [Compound 47] yielded a LogP of 3.65. `Cc1nnnn1C(=NOCc1csc(NC(=O)OCCc2ccccc2)n1)c1ccsc1` [Compound 44] had a LogP of 3.46. This LogP and that of the compound before are within 0.2 log units of each other. Consider `Cc1nnnn1C(=NOCc1csc(N)n1)c1ccc(Cl)s1` [Compound 100], for which the LogP is 2.02.

As for `CCCCCCCCC(=O)Nc1nc(CON=C(c2cc(-c3ccccc3)c(Cl)s2)n2nnnc2C)cs1` [Compound 78], the LogP turned out to be 5.94. The compound `Cc1nnnn1C(=NOCc1csc(NC(=O)NCCc2ccccc2)n1)c1ccsc1` [Compound 24] returned a log partition coefficient (LogP) of 2.86.

As to `COCCOC(=O)Nc1nc(CON=C(c2ccc(Br)s2)n2nnnc2C)cs1` [Compound 99], the LogP worked out at 3.1. `COCCOC(=O)Nc1cccc(CON=C(c2ccsc2Cl)n2nnnc2C)n1` [Compound 17] registered a log partition coefficient (LogP) of 2.66. Still for that read-out and setting: the same measure for `Cc1ccc(C(=NOCc2csc(N)n2)n2nnnc2C)s1` [Compound 113]: 1.8.

Take `Cc1nnnn1C(=NOCCc1csc(N)n1)c1ccsc1` [Compound 50]: the lipophilicity (LogP) is 1.16.

`Cc1nnnn1C(=NOCc1csc(NC(=O)C(C)C)n1)c1ccsc1` [Compound 31]: the LogP is 2.55. Still for that read-out and setting: the same measure for `Cn1nnnc1C(=NOCc1csc(NC(=O)OCCc2ccccc2)n1)c1csc(-c2ccccc2)n1` [Compound 166]: 4.06; for `CCc1nnnn1C(=NOCc1csc(NC(=O)C(C)(C)C)n1)c1ccsc1` [Compound 42]: 3.35; for `Cc1nnnn1C(=NOCc1csc(NC(=O)OCc2ccccc2)n1)c1ccsc1` [Compound 46]: 3.24. On the same count and under the same terms, the figure for `Cc1nnnn1C(=NOCc1cccc(NC(=O)C(C)(C)C)n1)c1ccsc1Cl` [Compound 2] is 3.27. `Cc1nnnn1C(=NOCc1csc(NC(=O)Cc2ccccc2)n1)c1ccsc1` [Compound 32]: the LogP is 2.9.

In turn, `Cc1ccc(C(=NOCc2csc(NC(=O)CCCc3ccccc3)n2)n2nnnc2C)s1` [Compound 121] gave a LogP of 3.81. `Cc1nnnn1C(=NOCc1csc(NC(=O)C2CC2)n1)c1ccc(Br)s1` [Compound 96] gave a LogP of 3.04. `CCCCCC(=O)Nc1cccc(CON=C(c2ccc(C)s2)n2nnnc2C)n1` [Compound 127] registered a log partition coefficient (LogP) of 3.79. For `Cc1ccc(C(=NOCc2csc(NC(=O)COCc3ccccc3)n2)n2nnnc2C)o1` [Compound 67], the log partition coefficient (LogP) came out at 3.12. The compound `COCCOCC(=O)Nc1nc(CON=C(c2ccc(Cl)s2)n2nnnc2C)cs1` [Compound 111] gave a LogP of 2.88.

With `Cn1nnnc1C(=NOCc1csc(NC(=O)C2CC2)n1)c1csc(-c2ccccc2)n1` [Compound 168], the LogP is 3.85. Same read-out and setting: the same measure for `Cc1nnnn1C(=NOCc1csc(NC(=O)C2CCCC2)n1)c1ccsc1Cl` [Compound 7]: 3.3; for `Cc1nnnn1C(=NOCc1csc(NC(=O)NCCc2ccccc2)n1)c1ccc(Cl)s1` [Compound 104]: 3.64.

`Cc1ccc(C(=NOCc2csc(NC(=O)NCc3ccccc3)n2)n2nnnc2C)s1` [Compound 117] returned a LogP of 3.17. Still for that read-out and setting: the figure for `Cc1ccc(C(=NOCc2csc(NC(=O)C(C)(C)C)n2)n2nnnc2C)s1` [Compound 115] is 3.42. `C=CCC(=O)Nc1nc(CON=C(c2ccsc2Cl)n2nnnc2C)cs1` [Compound 6] returned a log partition coefficient (LogP) of 2.73. With `Cc1nnnn1C(=NOCc1cccc(NC(=O)c2ccccc2)n1)c1ccsc1` [Compound 38], the LogP is listed as 3.01. In the case of `Cc1nnnn1C(=NOCc1csc(NC(=O)C2CCCCC2)n1)c1ccsc1` [Compound 29], the LogP is on record as 3.32.

For the compound `Cc1nnnn1C(=NOCc1csc(N)n1)c1ccc(-c2ccc(Cl)c(Cl)c2)o1` [Compound 81], the LogP came out at 2.83. As for `Cc1nnnn1C(=NOCc1csc(NC(=O)CCc2ccccc2)n1)c1ccsc1` [Compound 33], the LogP is reported as 3.14.

`Cc1nnnn1C(=NOCc1csc(NC(=O)C2CCCCC2)n1)c1ccsc1Cl` [Compound 8]: the log partition coefficient (LogP) was 4.48. Regarding `Cc1nnnn1C(=NOCc1csc(NC(=O)NC2CCCC2)n1)c1ccsc1` [Compound 28], the lipophilicity (LogP) was 2.65. As to `Cc1ccc(C(=NOCc2csc(NC(=O)OCCc3ccccc3)n2)n2nnnc2C)s1` [Compound 123], the LogP amounted to 3.88. `Cc1nnnn1C(=NOCc1csc(NC(=O)NC2CCCCC2)n1)c1ccsc1` [Compound 25]: the LogP turned out to be 2.92. In the case of `Cc1nnnn1C(=NOCc1csc(NC(=O)C(C)(C)C)n1)c1ccc(Cl)s1` [Compound 102], the LogP was found to be 3.73. As for `Cc1ccc(C(=NOCc2csc(NC(=O)C(C)(C)C)n2)n2nnnc2C)o1` [Compound 59], the LogP is reported as 2.95.

The compound `Cc1nnnn1C(=NOCc1csc(NC(=O)C(C)C)n1)c1ccsc1Cl` [Compound 12] gave a lipophilicity (LogP) of 2.86. The LogP values of the last two compounds are within 0.2 log units of each other. Still for that read-out and setting: the same measure for `Cc1ccc(C(=NOCc2csc(NC(=O)C3CC3)n2)n2nnnc2C)s1` [Compound 119]: 2.84. `CCCCCOC(=O)Nc1cccc(CON=C(c2ccc(C)s2)n2nnnc2C)n1` [Compound 126] had a LogP of 4.34. `CCCCCCCCC(=O)Nc1nc(CON=C(c2ccc(-c3ccccc3)o2)n2nnnc2C)cs1` [Compound 135]: the LogP is recorded as 5.01. The compound `Cc1nnnn1C(=NOCc1csc(NC(=O)C(C)C)n1)c1ccc(-c2ccccc2)o1` [Compound 134] had a LogP of 3.27. For the compound `CCCCCC(=O)Nc1nc(CON=C(c2ccc(C)o2)n2nnnc2C)cs1` [Compound 64], the LogP was determined as 3.26.

`CCCCCCCCC(=O)Nc1nc(CON=C(c2ccc(-c3ccc(Cl)c(Cl)c3)o2)n2nnnc2C)cs1` [Compound 83] showed a LogP of 5.85. `Cc1nnnn1C(=NOCc1csc(NC(=O)Cc2ccccc2)n1)c1ccsc1Cl` [Compound 10] showed a LogP of 3.21. Consider `Cc1nnnn1C(=NOCc1csc(NC(=O)NC(C)C)n1)c1ccsc1` [Compound 26], for which the LogP worked out at 2.32. Turning to `Cc1nnnn1C(=NOCc1csc(NC(=O)Cc2ccccc2)n1)c1ccc(Cl)s1` [Compound 103], the LogP is on record as 3.62. On to `Cc1nnnn1C(=NOCc1cccc(NC(=O)c2ccccc2)n1)c1ccsc1Cl` [Compound 1], for which the LogP is given as 3.26. As to `Cc1nnnn1C(=NOCc1csc(NC(=O)CCc2ccccc2)n1)c1ccc(Cl)s1` [Compound 108], the LogP was 3.85. In turn, `Cc1nnnn1C(=NOCc1csc(NC(=O)Cc2ccccc2)n1)c1ccc(-c2ccccc2)s1` [Compound 54] returned a LogP of 4.08. Consider `CCCCCC(=O)Nc1nc(CON=C(c2ccc(-c3ccccc3)o2)n2nnnc2C)cs1` [Compound 133], for which the LogP is 3.8. Still for that read-out and setting: the same measure for `Cc1ccc(C(=NOCc2csc(NC(=O)C(C)C)n2)n2nnnc2C)o1` [Compound 66]: 2.57; for `Cc1ccc(C(=NOCc2csc(NC(=O)Cc3ccccc3)n2)n2nnnc2C)s1` [Compound 116]: 3.35; for `CCCCCC(=O)Nc1nc(CON=C(c2ccc(C)s2)n2nnnc2C)cs1` [Compound 120]: 3.76.

The compound `Cc1nnnn1C(=NOCc1csc(N)n1)c1ccc(-c2ccccc2)o1` [Compound 131] had a LogP of 2.13. As to `Cc1ccc(C(=NOCc2csc(NC(=O)C3CCCC3)n2)n2nnnc2C)o1` [Compound 62], the LogP was found to be 2.98. On to `COCCOC(=O)Nc1cccc(CON=C(c2ccc(C)o2)n2nnnc2C)n1` [Compound 73], for which the LogP is listed as 2.53.

With `C=CCC(=O)Nc1nc(CON=C(c2ccc(Br)s2)n2nnnc2C)cs1` [Compound 97], the LogP amounted to 3.08. Turning to `Cc1nnnn1C(=NOCc1csc(NC(=O)CCCCl)n1)c1ccc(-c2ccccc2)o1` [Compound 136], the lipophilicity (LogP) is 3.39. As for `Cc1nnnn1C(=NOCc1csc(NC(=O)C2CCCC2)n1)c1ccsc1` [Compound 39], the LogP was 3.05. For `CCCCCC(=O)Nc1nc(CON=C(c2ccc(Br)s2)n2nnnc2C)cs1` [Compound 92], the LogP turned out to be 3.92.

Take `Cc1nnnn1C(=NOCc1csc(NC(=O)CCCCl)n1)c1ccsc1` [Compound 34]: the LogP is 2.67. `Cc1nnnn1C(=NOCc1csc(NC(=O)C2CC2)n1)c1ccc(-c2ccccc2)s1` [Compound 55] came in with a LogP of 3.7.

For `COCCOC(=O)Nc1nc(CON=C(c2ccc(Cl)s2)n2nnnc2C)cs1` [Compound 112], the lipophilicity (LogP) was found to be 3.05. In turn, `Cc1ccc(C(=NOCc2cccc(NC(=O)NCCc3ccccc3)n2)n2nnnc2C)s1` [Compound 128] returned a log partition coefficient (LogP) of 3.06.

In turn, `COCCOCC(=O)Nc1nc(CON=C(c2ccc(C)s2)n2nnnc2C)cs1` [Compound 129] came in with a LogP of 2.6.

Regarding `COCCOC(=O)Nc1nc(CON=C(c2ccc(C)s2)n2nnnc2C)cs1` [Compound 130], the LogP stood at 2.76. Still for that read-out and setting: the same measure for `Cc1ccc(C(=NOCc2cccc(N)n2)n2nnnc2C)s1` [Compound 124]: 1.51.
